Measured values reported in patent US20050272752A1, “Complexes of E-2-Methoxy-N-(3-{4-[3-methyl-4-(6-methyl-pyridin-3-yloxy)-phenylamino]-quinazolin-6-yl}-allyl)-acetamide and methods of preparing same” (Pfizer Inc, priority 2004, published 2005).

Columns and labels:
[1] = test system: transplanted human mammary carcinoma which expresses epidermal growth factor receptor tyrosine kinase (EGFR); settings: EGFR-expressing carcinoma in athymic nude mice; cited from earlier work
[2] = test system: another carcinoma which does not express the EGF receptor; settings: cited from earlier work
[3] = hygroscopic stability of the sesquisuccinate complex; assay type: physicochemical; settings: solid complex; relevant to weight changes during manufacture of capsules or tablets

hygroscopic stability [3] | SMILES | growth of transplanted human mammary carcinoma [1] | growth of carcinoma not expressing the EGF receptor [2]
 | O=CN/C=C/c1cc(O)ccc1O [erbstatin] | selectively attenuates the growth | without effect on the growth
substantially hygroscopically stable | COCC(=O)NC/C=C/c1ccc2ncnc(Nc3ccc(Oc4ccc(C)nc4)c(C)c3)c2c1 [sesquisuccinate complex, E-2-Methoxy-N-(3-{4-[3-methyl-4-(6-methyl-pyridin-3-yloxy)-phenylamino]-quinazolin-6-yl}-allyl)-acetamide] |  | 
